Measured values taken from patent US20030157035A1, “PHOTO STABLE ORGANIC SUNSCREEN COMPOUNDS WITH ANTIOXIDANT PROPERTIES AND COMPOSITIONS OBTAINED THEREFROM” (EM Industries, priority 2001, published 2003).
Like-named read-outs stand apart in the source and are kept apart here.

Key:
[1] = Stabilization of Avobenzone under solar simulator illumination (HPLC); format: physicochemical
Method: Individual solutions of selected sunscreen compounds (see Table 1) with Avobenzone were as follows. Each sunscreen compound was dissolved in 50% ethanol/50% H2O solution containing roughly an equal molar amount of Avobenzone. A similar solution containing Di-2-ethylhexyl-2,6-napthalene dicarboxylic acid (DENDA) and Avobenzone was also prepared. Each solution was then illuminated in the solar simulator as configured above for the photostability tests and aliquots of each solution were removed at 30-minute time intervals. These aliquots were injected into an HPLC and the loss of Avobenzone was followed with illumination time. The high performance liquid chromatograph (HPLC) used for all experiments reported therein incorporated a Spectra-Physics model P-200 pump with an Applied Biosystems model 785A UV-Visible detector with a Rheodyne manual injector incorporating a […] sample loop and a 150×4.6 mm reversed-phase C18 column (Alltech). All analyses were carried out under isocratic elution conditions using […] mixtures for the mobile phase at a flow rate of […] per minute. It was necessary to employ HPLC separation of Avobenzone from each of the sunscreen compounds to quantify Avobenzone due to the absorption spectra overlap with some of these compounds.

[2] = DPPH test method (reducing activity of DPPH radical); format: biochemical; details: absorbance at 517 nm after 20 minutes
Method: A DPPH working solution is then prepared by diluting 100 mL of this concentrate to a final volume of 250 mL (100 μM/mL). A blank 13×100 mm borosilicate glass screw top tube of ethanol (USP) is used to zero the spectrometer (Milton Roy, Spectronic 20+) at 517 nm and a control tube of DPPH working solution is measured under identical conditions, and taken as 0% activity. […] After 20 minutes, the absorbance of each sample is read at 517 nm.
The percent reducing activity (%RA) is calculated using the following equation: [formula]
Where A(0) is the absorbance value of the DPPH working solution at 517nm zeroed against an ethanol blank and A(20) is the absorbance at 517 nm, 20 minutes after combining the antioxidant with the DPPH working solution.
The concentration of antioxidant (mg/ml) in the final assay mixture is calculated based on the dilution of respective aliquots of each compound in the final assay volume and %RA tabulated and plotted as percent activity at each concentration in the dilution series.
The antioxidant activity of selected compounds of this invention was determined from their reducing activity of a DPPH radical.

[3] = UV-visible absorption spectrum; format: physicochemical
Method: (§1) Each sunscreen compound is dissolved in 70% ethanol/30% water and the UV visible absorption spectrum measured with a Shimadza UV 2101-double beam spectrophotometer using the solvent as reference. A control solution of Octocrylene is prepared and the UV-visible absorption spectrum measured. Each solution is then illuminated for two hours in the solar simulator. After illumination, the absorption spectrum is again measured for each solution.

[4] = Photostability in Xe-arc solar simulator (loss of UV absorption); details: 70% ethanol/30% water, about 250 J/cm^2
Method: Compounds are illuminated in a solar simulator incorporating a 1 kw Xe arc lamp, optical bench and illumination chamber. The entire output of the illumination system is focused onto the face of a 1 centimeter Cuvette (an area of 4 cm^2) that contains the dilute samples of a compound of Formula I. The samples experience roughly 250 J/cm^2 of radiation between 290 and 400 nm over a period of two hours. The solutions contain between 0.0056 mg/ml and 2.5 mg/ml.
A solar simulator used for illumination of the samples in the experiments is constructed incorporating a 1 kw Xe arc lamp, optical bench and sample illumination chamber. The lamp output is filtered through a water filter with a course window to remove most of the infrared radiation and optical filters to remove wavelengths below 290 mn. The output of the illumination system is focused onto the face of a 1 cm quartz Cuvette that is thermally equilibrated with a constant temperature water bath at 25° C. A magnetic stir is mounted under the Cuvette so that the samples could be stirred while being illuminated. An electric shutter is controlled by a dark room timer to provide precise control of illumination times. The solar simulator is constructed to provide illumination that closely matches terrestrial sunlight. The solar simulator delivers roughly 250 J/cm^2 over a 2-hour period of illumination in a 290-490 nm range. This irradiance is determined using two nitrobenzaldehyde chemical actinometry. The irradiance is much higher than other solar simulator systems which typically illuminate a large area in order to illuminate many samples simultaneously rather than being focused down to a very small area.
as §1

[5] = Product/Avobenzone (1:1, w/w), % Loss of Avobenzone by HPLC, solar simulator, 2 hrs

Row | Compound | Stabilization of Avobenzone % Loss of Avobenzone in 2 hrs [1] [%] | % Reducing Activity of DPPH Radical at 30 μg/ml [2] [%] | λmax, nm (Ethanol) [3] [nm] | Stabilization of Avobenzone % Loss of Avobenzone in 2 hrs [1, 5] | Photostability % Loss in 2 hrs [4] [%]
1 | COc1cc(C=C(C(=O)OCCC(C)C)C(=O)OCCC(C)C)ccc1O [Di-isoamyl-3-methoxy-4-hydroxy benzylidene malonate] | 3.8 | 9.5 | 333 | – | –
2 | COc1cc(C=C(C(C)=O)C(=O)OCCC(C)C)cc(C(C)C)c1O [Isoamyl-alpha-acetyl-3-methoxy-4-hydroxy-5-isopropyl-cinnamate] | – | 28 | 341 | insignificant | 3.2
3 | CCCCC(CC)COC(=O)C(=Cc1cc(OC)c(O)c(C(C)C)c1)C(=O)OCC(CC)CCCC (stereo not shown) [di-(2-ethyhexyl)-3-methoxy-4-hydroxy-5-isopropyl-benzylidene malonate] | 2.5 | 11.2 | 334 | – | –
4 | CCCCC(CC)COC(=O)C(=Cc1ccc(O)c(OC)c1)C(=O)OCC(CC)CCCC (stereo not shown) [Di-(2-Ethylhexyl)-3-methoxy-4-hydroxy benzylidene malonate] | 4.5 | 7.4 | 332 | – | –
5 | COc1ccc(C(=O)CC(=O)c2ccc(C(C)(C)C)cc2)cc1 [Avobenzone, reference compound] | – | – | 358 | – | 37
6 | CCCCC(CC)COC(=O)C(C#N)=C(c1ccccc1)c1ccccc1 (stereo not shown) [Octocrylene, reference compound] | – | – | 303 | 1.5% | 2.8
7 | COc1cc(C=C(C(C)=O)C(=O)OCCC(C)C)ccc1O [Iso-amyl-alpha-acetyl-3-methoxy-4-hydroxy-cinnamate] | – | 22 | 339 | insignificant | 4.1
